Some test systems named below: KM12; HCT-15; DMS-114; CAKI-1; SNB-19; SF-295; M19-MEL; A498; NCI-H23; SK-MEL-5; K562; ACHN; SN12C; HOP-92; U-251; LXFL 529; SK-MEL-2; HCT-116.
Holding throughout (experiment): growth of human tumour cells (NCI), 48 h

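These data come from cells grown in 96-well plates and exposed to compound for 48 hours at five concentrations. Abbreviation: GI50, concentration required for 50% inhibition of growth.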 The source made the active and inactive calls. No stated cut-off is given here; in the data, active = GI50 up to about 1.1 µM and inactive = higher. Where only a bound is given, the exact number is not on record here.

The results in this text go back to ChEMBL document CHEMBL1201862, “PubChem BioAssay data set” (2004).

For the compound `C[C@]12CCc3nonc3C1CC[C@@H]1C2CC[C@@]2(C)C1CC[C@@H]2O` (some centres not stated), the GI50 in the assay on KM12 was > 100 µM (inactive); in the assay with HCT-15, above 100 µM; with DMS-114 it was > 100 µM (inactive); in the assay on CAKI-1, > 100 µM (inactive); in the assay on SNB-19, > 100 µM (inactive); in the assay on SF-295 it was > 100 µM (inactive). Also, the GI50 in the assay with M19-MEL, in the assay with A498, with NCI-H23, in the assay with SK-MEL-5, in the assay with K562 and with ACHN was > 100 µM (inactive) throughout. For the same compound, the GI50 is > 100 µM (inactive) with SN12C; 94.4 µM (inactive) in the assay on HOP-92; > 100 µM (inactive) in the assay with U-251; > 100 µM (inactive) in the assay with LXFL 529; > 100 µM (inactive) with SK-MEL-2.

For the compound `CN(/N=C/c1ccnc2ccccc12)c1c([N+](=O)[O-])cc([N+](=O)[O-])cc1[N+](=O)[O-]`, the GI50 with KM12 is > 100 µM (inactive); with HCT-15, 44.5 µM; in the assay with DMS-114, 37.9 µM (inactive); in the assay on CAKI-1, 25.1 µM (inactive); in the assay with SNB-19 it was > 100 µM (inactive); in the assay on SF-295 it was 76.9 µM (inactive). Further, the GI50 with M19-MEL was > 100 µM (inactive); in the assay with A498, 48.8 µM (inactive); in the assay with NCI-H23, 35.1 µM (inactive); with SK-MEL-5 it was 34.2 µM (inactive); with K562, 30.7 µM (inactive); in the assay with ACHN, 72.6 µM (inactive). The GI50 with SN12C was > 100 µM (inactive); in the assay with HOP-92, 28.1 µM (inactive); with U-251 it was 88.3 µM (inactive); in the assay with LXFL 529, 48.4 µM (inactive); with SK-MEL-2, 24.4 µM (inactive).

With `C=C1C(=O)OC2/C=C(\C)C(O)/C=C\C(C)(O)CC(OC(=O)/C(C)=C/C)C12` (configuration not stated), the GI50 with KM12 is 40.6 µM (inactive); in the assay with HCT-15, 17.2 µM; in the assay with DMS-114 it was > 48 µM (inactive); in the assay with HCT-116, 16.3 µM (inactive); in the assay on CAKI-1 it was 23.6 µM (inactive); in the assay with SNB-19 it was > 39.6 µM (inactive). In addition, the GI50 with SF-295 was > 100 µM (inactive); with M19-MEL, 17.5 µM (inactive); with A498 it was > 100 µM (inactive); in the assay with NCI-H23, 39.8 µM (inactive); in the assay on SK-MEL-5, 51.3 µM (inactive); in the assay with K562, 9.64 µM (inactive). Besides, the GI50 is 22.4 µM (inactive) in the assay on ACHN; 22 µM (inactive) in the assay on SN12C; 29.2 µM (inactive) in the assay with HOP-92; > 67.8 µM (inactive) with U-251; 15.3 µM (inactive) in the assay with LXFL 529; 19.7 µM (inactive) in the assay with SK-MEL-2.

On to `Cn1cc2ccccc2c1-c1nc(F)nc(Oc2ccc3c(c2)CC[C@@H]2C3CC[C@@]3(C)C2C[C@H](O)[C@@H]3O)n1` (some centres not stated), for which the GI50 was 17.7 µM (inactive) in the assay with KM12; 12.2 µM in the assay with HCT-15; 12.3 µM (inactive) in the assay with DMS-114; 14.3 µM (inactive) with HCT-116; 18.1 µM (inactive) in the assay on CAKI-1; 13.8 µM (inactive) with SNB-19. The GI50 was 17.6 µM (inactive) with SF-295; 16.9 µM (inactive) with M19-MEL; 27.3 µM (inactive) with A498; 18.3 µM (inactive) in the assay with NCI-H23; 17.7 µM (inactive) with SK-MEL-5; 18.7 µM (inactive) in the assay with K562. The GI50 is 20.2 µM (inactive) in the assay with ACHN; 13.7 µM (inactive) in the assay with SN12C; 22.3 µM (inactive) in the assay on HOP-92; 10.3 µM (inactive) in the assay with U-251; 13.8 µM (inactive) in the assay on LXFL 529; 13 µM (inactive) in the assay with SK-MEL-2.

Turning to `CN/N=C(/CC(=O)c1sc(NNC(C)=O)nc1C)C(=O)Nc1ccc(OC)cc1OC`, the GI50 is > 100 µM (inactive) in the assay with KM12; above 100 µM with HCT-15; > 100 µM (inactive) with DMS-114; > 100 µM (inactive) in the assay on HCT-116; > 100 µM (inactive) in the assay on CAKI-1; > 100 µM (inactive) in the assay on SNB-19. For the same compound, the GI50 in the assay with SF-295, in the assay on M19-MEL, with A498, in the assay on NCI-H23, with SK-MEL-5 and in the assay with K562 was > 100 µM (inactive) in each case. For the same compound, the GI50 in the assay on ACHN, in the assay on SN12C, with HOP-92, with U-251, in the assay with LXFL 529 and in the assay with SK-MEL-2 was > 100 µM (inactive) each time.

`O=C1c2ccc3c4ccccc4n(Cc4ccccc4)c3c2C(=O)N1c1ccccc1`: the GI50 with KM12 is 15.5 µM (inactive); in the assay with HCT-15, 10.8 µM; in the assay on DMS-114, 17.9 µM (inactive); in the assay on HCT-116, 16.4 µM (inactive); with CAKI-1, 12.5 µM (inactive); in the assay on SNB-19, 20 µM (inactive). Further, the GI50 with SF-295 is 14.7 µM (inactive); in the assay with M19-MEL, 17.3 µM (inactive); with A498, 25.1 µM (inactive); in the assay on NCI-H23, 12.9 µM (inactive); in the assay with SK-MEL-5 it was 16.1 µM (inactive); in the assay on K562, 6.07 µM (inactive). The GI50 in the assay with ACHN was > 35.7 µM (inactive); in the assay on SN12C, 16.5 µM (inactive); with HOP-92 it was 11.4 µM (inactive); in the assay with U-251 it was 15.8 µM (inactive); with LXFL 529 it was 14.3 µM (inactive); in the assay with SK-MEL-2, 22.9 µM (inactive).

`NC(=O)c1ccccc1NC(=O)C(=O)Cc1nc2ccccc2nc1O`: the GI50 in the assay with KM12 was 71.8 µM (inactive); in the assay on HCT-15 it was above 100 µM; with DMS-114 it was 94.6 µM (inactive); with HCT-116, > 100 µM (inactive); in the assay with CAKI-1, > 100 µM (inactive); with SNB-19 it was > 100 µM (inactive). For the same compound, the GI50 with SF-295, in the assay on M19-MEL, in the assay on A498, with NCI-H23, with SK-MEL-5 and with K562 was > 100 µM (inactive) each time. Besides, the GI50 in the assay on ACHN is > 100 µM (inactive); in the assay on HOP-92, 98.6 µM (inactive); in the assay with U-251, > 100 µM (inactive); in the assay on LXFL 529 it was > 100 µM (inactive); in the assay on SK-MEL-2, > 100 µM (inactive).

With `COc1cccc(C2=NC(C(C)C)CO2)c1OC` (configuration not stated), the GI50 with KM12 was > 100 µM (inactive); with HCT-15, above 100 µM; in the assay with DMS-114, > 100 µM (inactive); in the assay with CAKI-1, > 100 µM (inactive); in the assay with SNB-19, > 100 µM (inactive); in the assay on SF-295, > 100 µM (inactive). The GI50 with M19-MEL, in the assay with A498, with NCI-H23, in the assay on SK-MEL-5, in the assay with K562 and with ACHN was > 100 µM (inactive) in each case. In addition, the GI50 in the assay with SN12C, with HOP-92, with LXFL 529 and with SK-MEL-2 was > 100 µM (inactive) in each case.

With `O=C(Nc1ccc(C(F)(F)F)cc1[N+](=O)[O-])C(=O)C1NC(=S)NC1=O` (configuration not stated), the GI50 in the assay on KM12 is > 100 µM (inactive); in the assay on HCT-15 it was above 100 µM; in the assay with DMS-114, > 100 µM (inactive); with HCT-116, > 100 µM (inactive); in the assay on CAKI-1 it was 54.1 µM (inactive); in the assay with SNB-19, > 100 µM (inactive). The GI50 is > 100 µM (inactive) in the assay on SF-295; > 100 µM (inactive) in the assay with M19-MEL; 53 µM (inactive) with A498; > 100 µM (inactive) in the assay on NCI-H23; > 100 µM (inactive) with SK-MEL-5; > 100 µM (inactive) in the assay on K562. Also, the GI50 in the assay on ACHN is > 100 µM (inactive); in the assay on SN12C, 2.26 µM (inactive); in the assay on HOP-92, 43.7 µM (inactive); in the assay on U-251, > 100 µM (inactive); with LXFL 529 it was > 100 µM (inactive); in the assay on SK-MEL-2, > 100 µM (inactive).

As for `C[N+](C)(C)CC(=O)N/N=C(\C(=O)NC1=C(Cl)C(=O)c2ccccc2C1=O)C(C#N)c1csc(-c2ccc([N+](=O)[O-])cc2)n1` (configuration not stated), the GI50 in the assay with KM12 is > 100 µM (inactive); in the assay with HCT-15, above 100 µM; in the assay on DMS-114, > 100 µM (inactive); with HCT-116, > 100 µM (inactive); in the assay with CAKI-1, > 100 µM (inactive); in the assay on SNB-19 it was > 100 µM (inactive). The GI50 in the assay with SF-295, in the assay on M19-MEL, in the assay on A498, with NCI-H23, in the assay on SK-MEL-5 and in the assay on K562 was > 100 µM (inactive) in each case. In addition, the GI50 in the assay with ACHN, in the assay with SN12C, with HOP-92, in the assay with U-251, in the assay on LXFL 529 and in the assay on SK-MEL-2 was > 100 µM (inactive) throughout.

For `CN1C(=O)CSC1=S` [3-METHYL-RHODANINE], the GI50 with KM12 is > 100 µM (inactive); in the assay with HCT-15, above 100 µM; in the assay on DMS-114 it was > 100 µM (inactive); in the assay with HCT-116, > 100 µM (inactive); in the assay on CAKI-1 it was > 100 µM (inactive); in the assay with SF-295, > 100 µM (inactive). Also, the GI50 in the assay on M19-MEL, in the assay with A498, in the assay on NCI-H23, in the assay with SK-MEL-5, in the assay with K562 and with ACHN was > 100 µM (inactive) throughout. Also, the GI50 in the assay with SN12C, in the assay on HOP-92, in the assay on U-251, in the assay with LXFL 529 and in the assay on SK-MEL-2 was > 100 µM (inactive) each time.
